The experiment deals with T1, human CaMAP FKBP38 (Homo sapiens, UniProt Q14318).
T1 construct: made in house; host or cells: E. coli Rosetta cells (pET28a)
The experiment can be described thus: Inhibition of PPIase activity of calmodulin-activated CaMAP FKBP38 (isomer-specific proteolysis with chymotrypsin). It counts as biochemical. As to conditions: 0.5 μM FKBP38, 0.5 μM calmodulin, 5 mM calcium chloride; substrate Suc-Ala-Phe-Pro-Phe-NHNp; read-out: IC50 value (inhibitor concentration against detected enzyme activity). The protocol:
The human CaMAP FKBP38 (synonyms: FKBP8_HUMAN; Swiss-Prot-No.: Q14318) was produced molecular-biologically, as described in Example 9, and stored in aliquots of 100 μl with a protein concentration of 0.83 mg/ml at −80° C. Just before measuring the activity, one of these aliquots was thawed and subsequently stored at 4° C. Furthermore, commercially available calmodulin isolated from bovine brain (Sigma; purchase order no.: P2277), which had been stored at −80° C., was thawed just before measuring the activity and stored at 4° C. Suc-Ala-Phe-Pro-Phe-pNA (Bachem; purchase order no.: L-1400) was used as CaMAP substrate. Alpha-chymotrypsin isolated from bovine pancreas (Merck KG; purchase order no.: 102307) was used as isomer specific auxiliary enzyme. The following working solutions were prepared just before measuring and stored at 4° C.: • solution A: 55 mM HEPES buffer, pH 7.8; 1 mM DTT, 0.5% glycerol • solution B: 20 mg of the peptide substrate dissolved in 1 ml DMSO • solution C: 20 mg chymotrypsin dissolved in 200 μl of solution A • solution D: FKBP38 ([…], diluted in solution A) • solution E: calmodulin (300 μM, diluted in solution A) • solution F: calcium chloride (1 M in solution A)
For the kinetic determination of CaMAP activity, a computer assisted diode-array spectrometer (Hewlett Packard) with a cuvette temperature of 4° C. is used. […]

`C=CC[C@@H]1/C=C(\C)C[C@H](C)C[C@H](OC)[C@H]2O[C@@](O)(C(=O)C(=O)N3CCCC[C@H]3C(=O)O[C@H](/C(C)=C/[C@@H]3CC[C@@H](O)[C@H](OC)C3)[C@H](C)[C@@H](O)CC1=O)[C@H](C)C[C@@H]2OC` [FK506]: the IC50 was about 4.3 µM.

(Values after US20070244165A1, “Method for Identifying and Producing Effectors of Calmodulin-Dependent Peptidyl-Prolyl Cis/Trans Isomers” (MAX-PLANK-GESELLSCHAFT ZUR FORDERUNG, priority 2004, published 2007).)
